Patent US11083725B2 (priority 2014, dated 2021)

System: NHBE cells
Test: Biolog metabolic array: substrate use by NHBE cells with or without CA09 infection
Type: cell-based, human
Conditions: for Substrate use, 590 nm absorbance normalized to zero hour, 1 hr: Biolog PMM2, 1 hr; for Substrate use, 590 nm absorbance normalized to zero hour, 5 hr: Biolog PMM2, 5 hr; for Substrate use, 590 nm absorbance normalized to zero hour, 7 hr: Biolog PMM2, 7 hr
[1] = Control (uninfected) NHBE cells
[2] = Virus (CA09-infected, MOI 1) NHBE cells
[3] = Virus: CA09-infected NHBE cells, MOI 1, Biolog PMM2

SMILES | 590 nm absorbance normalized to zero hour (substrate use), 1 hr [1] | 590 nm absorbance normalized to zero hour (substrate use), 2 hr [1] | 590 nm absorbance normalized to zero hour (substrate use), 3 hr [1] | 590 nm absorbance normalized to zero hour (substrate use), 4 hr [1] | 590 nm absorbance normalized to zero hour (substrate use), 6 hr [1] | 590 nm absorbance normalized to zero hour (substrate use), 8 hr [1] | 590 nm absorbance normalized to zero hour (substrate use), 9 hr [1] | 590 nm absorbance normalized to zero hour (substrate use), 10 hr [1] | 590 nm absorbance normalized to zero hour (substrate use), 11 hr [1] | 590 nm absorbance normalized to zero hour (substrate use), 1 hr [3] | 590 nm absorbance normalized to zero hour (substrate use), 2 hr [3] | 590 nm absorbance normalized to zero hour (substrate use), 3 hr [3] | 590 nm absorbance normalized to zero hour (substrate use), 4 hr [3] | 590 nm absorbance normalized to zero hour (substrate use), 5 hr [3] | 590 nm absorbance normalized to zero hour (substrate use), 6 hr [3] | 590 nm absorbance normalized to zero hour (substrate use), 7 hr [3] | 590 nm absorbance normalized to zero hour (substrate use), 8 hr [3] | 590 nm absorbance normalized to zero hour (substrate use), 9 hr [3] | 590 nm absorbance normalized to zero hour (substrate use), 10 hr [3] | 590 nm absorbance normalized to zero hour (substrate use), 11 hr [3] | other results
O=C(O)CC(O)(CC(=O)O)C(=O)O [Citric Acid] | 1.40 | 1.41 | 1.16 | 1.15 | 1.07 | 1.05 | 1.05 | 1.05 | 1.04 | 1.54 | 1.94 | 2.21 | 2.31 | 2.64 | 2.74 | 2.85 | 2.95 | 3.10 | 2.94 | 2.81 | Substrate use, 590 nm absorbance normalized to zero hour, 1 hr [1]: 1.40; Substrate use, 590 nm absorbance normalized to zero hour, 5 hr [1]: 1.22; Substrate use, 590 nm absorbance normalized to zero hour, 7 hr [1]: 1.04; 590 nm absorbance normalized to zero hour (substrate use), 1 hr [2]: 1.54; 590 nm absorbance normalized to zero hour (substrate use), 2 hr [2]: 1.94; 590 nm absorbance normalized to zero hour (substrate use), 3 hr [2]: 2.21; 590 nm absorbance normalized to zero hour (substrate use), 4 hr [2]: 2.31; 590 nm absorbance normalized to zero hour (substrate use), 5 hr [2]: 2.64; 590 nm absorbance normalized to zero hour (substrate use), 6 hr [2]: 2.74; 590 nm absorbance normalized to zero hour (substrate use), 7 hr [2]: 2.85; 590 nm absorbance normalized to zero hour (substrate use), 8 hr [2]: 2.95; 590 nm absorbance normalized to zero hour (substrate use), 9 hr [2]: 3.10; 590 nm absorbance normalized to zero hour (substrate use), 10 hr [2]: 2.94; 590 nm absorbance normalized to zero hour (substrate use), 11 hr [2]: 2.81
O=C[C@H](O)[C@@H](O)[C@H](O)[C@H](O)CO [D-(+)-Glucose] |  |  |  |  |  |  |  |  |  | 0.82 | 1.44 | 1.76 | 1.96 | 2.64 | 2.91 | 3.23 | 3.59 | 4.21 | 4.43 | 5.05 | 
O=C[C@@H](O)[C@H](O)[C@H](O)CO [D-Arabinose] | 1.59 | 1.50 | 0.77 | 1.35 | 0.39 | 1.00 | 1.14 | 0.96 | 1.35 | 0.65 | 0.90 | 1.03 | 1.07 | 1.22 | 1.29 | 1.37 | 1.33 | 1.34 | 1.38 | 1.58 | Substrate use, 590 nm absorbance normalized to zero hour, 1 hr [1]: 1.59; Substrate use, 590 nm absorbance normalized to zero hour, 5 hr [1]: 0.99; Substrate use, 590 nm absorbance normalized to zero hour, 7 hr [1]: 1.04; 590 nm absorbance normalized to zero hour (substrate use), 1 hr [2]: 0.65; 590 nm absorbance normalized to zero hour (substrate use), 2 hr [2]: 0.90; 590 nm absorbance normalized to zero hour (substrate use), 3 hr [2]: 1.03; 590 nm absorbance normalized to zero hour (substrate use), 4 hr [2]: 1.07; 590 nm absorbance normalized to zero hour (substrate use), 5 hr [2]: 1.22; 590 nm absorbance normalized to zero hour (substrate use), 6 hr [2]: 1.29; 590 nm absorbance normalized to zero hour (substrate use), 7 hr [2]: 1.37; 590 nm absorbance normalized to zero hour (substrate use), 8 hr [2]: 1.33; 590 nm absorbance normalized to zero hour (substrate use), 9 hr [2]: 1.34; 590 nm absorbance normalized to zero hour (substrate use), 10 hr [2]: 1.38; 590 nm absorbance normalized to zero hour (substrate use), 11 hr [2]: 1.58
OC[C@H]1O[C@@H](O[C@H]2[C@H](O)[C@@H](O)[C@H](O)O[C@@H]2CO)[C@H](O)[C@@H](O)[C@@H]1O [D-Cellobiose] | 1.74 | 2.30 | 2.69 | 2.91 | 4.52 | 4.59 | 5.13 | 5.20 | 5.51 | 1.58 | 2.09 | 2.38 | 2.49 | 2.81 | 3.00 | 3.14 | 3.31 | 3.54 | 3.69 | 4.06 | 590 nm absorbance normalized to zero hour (substrate use), 0 hr [1]: 1.00; Substrate use, 590 nm absorbance normalized to zero hour, 0 hr (Control (uninfected) NHBE cells, Biolog PMM2, 0 hr): 1.00; Substrate use, 590 nm absorbance normalized to zero hour, 1 hr [1]: 1.74; Substrate use, 590 nm absorbance normalized to zero hour, 5 hr [1]: 3.55; Substrate use, 590 nm absorbance normalized to zero hour, 7 hr [1]: 4.26; 590 nm absorbance normalized to zero hour (substrate use), 0 hr [2]: 1.00; 590 nm absorbance normalized to zero hour (substrate use), 1 hr [2]: 1.58; 590 nm absorbance normalized to zero hour (substrate use), 2 hr [2]: 2.09; 590 nm absorbance normalized to zero hour (substrate use), 3 hr [2]: 2.38; 590 nm absorbance normalized to zero hour (substrate use), 4 hr [2]: 2.49; 590 nm absorbance normalized to zero hour (substrate use), 5 hr [2]: 2.81; 590 nm absorbance normalized to zero hour (substrate use), 6 hr [2]: 3.00; 590 nm absorbance normalized to zero hour (substrate use), 7 hr [2]: 3.14; 590 nm absorbance normalized to zero hour (substrate use), 8 hr [2]: 3.31; 590 nm absorbance normalized to zero hour (substrate use), 9 hr [2]: 3.54; 590 nm absorbance normalized to zero hour (substrate use), 10 hr [2]: 3.69; 590 nm absorbance normalized to zero hour (substrate use), 11 hr [2]: 4.06; 590 nm absorbance normalized to zero hour (substrate use), 0 hr [3]: 1.00
